Data published in BigSolDB 2.1.

O=C(O)c1cccc(O)c1O
solubility (mole fraction)
Conditions | 278.15 K | 283.15 K | 288.15 K | 293.15 K | 298.15 K | 303.15 K | 308.15 K | 313.15 K | 318.15 K
in acetone | 0.0969 | 0.0987 | 0.101 | 0.105 | 0.108 | 0.113 | 0.116 | 0.121 | 0.127
in acetonitrile | 0.00923 | 0.0101 | 0.0108 | 0.0115 | 0.013 | 0.0147 | 0.0158 | 0.0174 | 0.0198
in ethanol | 0.0838 | 0.0855 | 0.0884 | 0.0907 | 0.0944 | 0.0973 | 0.101 | 0.105 | 0.11
in ethyl acetate | 0.0459 | 0.048 | 0.0513 | 0.0547 | 0.059 | 0.0613 | 0.066 | 0.0719 | 0.0761
in ethyl formate | 0.0232 | 0.0245 | 0.0258 | 0.0277 | 0.0301 | 0.0321 | 0.0351 | 0.0374 | 0.0411
in isopentanol | 0.0569 | 0.0605 | 0.064 | 0.067 | 0.0709 | 0.0744 | 0.0803 | 0.0859 | 0.0904
in isopropanol | 0.0697 | 0.0727 | 0.0764 | 0.0824 | 0.0879 | 0.0902 | 0.0976 | 0.103 | 0.11
in isopropyl acetate | 0.0426 | 0.045 | 0.0494 | 0.0532 | 0.0568 | 0.0602 | 0.0644 | 0.0696 | 0.0728
in methyl acetate | 0.0466 | 0.0493 | 0.0529 | 0.0571 | 0.0594 | 0.0621 | 0.0665 | 0.0726 | 0.0764
in n-butanol | 0.0653 | 0.0683 | 0.0706 | 0.0737 | 0.0766 | 0.0806 | 0.0853 | 0.0903 | 0.0952
in n-propanol | 0.0664 | 0.07 | 0.0727 | 0.0761 | 0.0788 | 0.084 | 0.0873 | 0.0915 | 0.0977
in n-propyl acetate | 0.0454 | 0.048 | 0.0504 | 0.0534 | 0.0564 | 0.0581 | 0.0615 | 0.0672 | 0.0721
